Laboratory results as given in PubChem BioAssay (NCI).
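Exposure lasted 48 hours, with cells grown in 96-well plates and compounds tested at five concentrations. TGI: concentration producing complete growth inhibition.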

What was measured:
Test in all cases: DTP human tumour cell line panel, 48 h
[1] = system: HCC-2998 colon
[2] = system: U251 CNS
[3] = system: PC-3 prostate
[4] = system: NCI-H522 lung
[5] = system: MDA-N
[6] = system: OVCAR-8 ovarian
[7] = system: OVCAR-3 ovarian
[8] = system: HOP-92 NSCLC
[9] = system: UO-31 renal
[10] = system: SF-295 CNS
[11] = system: A549 NSCLC
[12] = system: T-47D breast
[13] = system: RXF 393 renal
[14] = system: CCRF-CEM leukemia
[15] = system: OVCAR-5 ovarian
[16] = system: SF-268 CNS
[17] = system: ACHN renal
[18] = system: 786-0 renal
[19] = system: HT29 colon
[20] = system: MCF7 breast
[21] = system: A498 renal
[22] = system: SW-620 colon
[23] = system: HS 578T breast
[24] = system: UACC-257 melanoma
[25] = system: BT-549 breast
[26] = system: RPMI-8226 leukemia
[27] = system: NCI-H226 lung
[28] = system: SK-MEL-2 melanoma
[29] = system: KM12 colon
[30] = system: EKVX NSCLC
[31] = system: LOX IMVI melanoma
[32] = system: SF-539 CNS
[33] = system: HCT-116 colon
[34] = system: SNB-19 CNS
[35] = system: OVCAR-4 ovarian
[36] = system: MDA-MB-231 breast
[37] = system: UACC-62 melanoma
[38] = system: SNB-75 CNS
[39] = system: NCI-H23 lung
[40] = system: COLO 205 colon
[41] = system: TK-10 renal
[42] = system: HOP-62 NSCLC
[43] = system: HCT-15 colon
[44] = system: MDA-MB-435
[45] = system: SK-MEL-28 melanoma
[46] = system: DU-145 prostate
[47] = system: SK-MEL-5 melanoma
[48] = system: CAKI-1 renal
[49] = system: SN12C renal
[50] = system: SK-OV-3 ovarian
[51] = system: IGROV1 ovarian
[52] = system: MOLT-4 leukemia
[53] = system: NCI-H460 lung
[54] = system: NCI/ADR-RES ovarian
[55] = system: K-562 leukemia
[56] = system: HL-60(TB) leukemia
[57] = system: SR leukemia
[58] = system: M14 melanoma
[59] = system: MALME-3M melanoma

Structure (SMILES): CCCCCCCCCCCCCCCC(=O)Nc1ccn(C2CC(OP(=O)(O)OCC3OC(n4cc(F)c(=O)[nH]c4=O)CC3OC(C)=O)C(CO)O2)c(=O)n1 (stereo not given)
- TGI [1]: > 36.5 µM
- TGI [2]: 71.8 µM
- TGI [3]: 25.2 µM
- TGI [4]: 37.7 µM
- TGI [5]: > 100 µM
- TGI [6]: > 52.3 µM
- TGI [7]: > 100 µM
- TGI [8]: > 100 µM
- TGI [9]: 2.75 µM
- TGI [10]: > 45.2 µM
- TGI [11]: > 41.3 µM
- TGI [12]: > 100 µM
- TGI [13]: > 71 µM
- TGI [14]: > 100 µM
- TGI [15]: > 64.5 µM
- TGI [16]: > 44.4 µM
- TGI [17]: 3.54 µM
- TGI [18]: > 100 µM
- TGI [19]: 52.8 µM
- TGI [20]: > 100 µM
- TGI [21]: > 100 µM
- TGI [22]: > 100 µM
- TGI [23]: 90.9 µM
- TGI [24]: > 100 µM
- TGI [25]: 62.2 µM
- TGI [26]: 27.9 µM
- TGI [27]: > 100 µM
- TGI [28]: > 63.4 µM
- TGI [29]: 48.1 µM
- TGI [30]: > 100 µM
- TGI [31]: > 100 µM
- TGI [32]: > 39.5 µM
- TGI [33]: > 100 µM
- TGI [34]: > 63.2 µM
- TGI [35]: > 100 µM
- TGI [36]: > 61.5 µM
- TGI [37]: > 47.2 µM
- TGI [38]: > 51.6 µM
- TGI [39]: > 63.9 µM
- TGI [40]: > 66.3 µM
- TGI [41]: > 100 µM
- TGI [42]: 13.3 µM
- TGI [43]: > 65.4 µM
- TGI [44]: > 94.8 µM
- TGI [45]: > 100 µM
- TGI [46]: > 100 µM
- TGI [47]: > 96.5 µM
- TGI [48]: > 35.7 µM
- TGI [49]: > 49.9 µM
- TGI [50]: > 51.6 µM
- TGI [51]: > 100 µM
- TGI [52]: 34.4 µM
- TGI [53]: > 100 µM
- TGI [54]: 46.1 µM
- TGI [55]: > 100 µM
- TGI [56]: > 21.9 µM
- TGI [57]: 22.7 µM
- TGI [58]: > 39.7 µM

Structure (SMILES): O=C1NC(N/N=C\C(O)C(O)C(O)C(O)CO)=N/C1=C\c1ccc(Cl)cc1 (stereo not given)
- TGI [1]: 36.3 µM
- TGI [3]: 18.5 µM
- TGI [4]: 7.46 µM
- TGI [5]: 9.99 µM
- TGI [6]: 5.63 µM
- TGI [7]: 6.88 µM
- TGI [8]: 7.44 µM
- TGI [9]: > 79.9 µM
- TGI [10]: 31.5 µM
- TGI [11]: > 73.3 µM
- TGI [12]: 14.1 µM
- TGI [13]: 25.6 µM
- TGI [14]: > 73.1 µM
- TGI [15]: > 66.6 µM
- TGI [16]: 10.5 µM
- TGI [17]: > 59.1 µM
- TGI [18]: 18.1 µM
- TGI [19]: 36.3 µM
- TGI [20]: > 100 µM
- TGI [21]: 39.9 µM
- TGI [22]: > 100 µM
- TGI [23]: 6.68 µM
- TGI [24]: 37.4 µM
- TGI [25]: 31.4 µM
- TGI [59]: 5.95 µM
- TGI [26]: > 100 µM
- TGI [27]: 10.6 µM
- TGI [28]: 23.1 µM
- TGI [29]: > 80.7 µM
- TGI [30]: 38.9 µM
- TGI [31]: 12.8 µM
- TGI [32]: 1.01 µM
- TGI [33]: > 40.4 µM
- TGI [34]: 10.9 µM
- TGI [35]: 26 µM
- TGI [36]: 15.2 µM
- TGI [37]: 3.14 µM
- TGI [38]: 6.04 µM
- TGI [39]: 21.2 µM
- TGI [40]: 23.7 µM
- TGI [41]: 27.4 µM
- TGI [42]: 7.5 µM
- TGI [43]: > 100 µM
- TGI [44]: 34.7 µM
- TGI [45]: > 100 µM
- TGI [46]: 91.5 µM
- TGI [47]: 31.4 µM
- TGI [48]: > 100 µM
- TGI [49]: 15.3 µM
- TGI [50]: 40.6 µM
- TGI [51]: 31.9 µM
- TGI [52]: 24.6 µM
- TGI [53]: 32.3 µM
- TGI [54]: > 100 µM
- TGI [55]: > 100 µM
- TGI [56]: > 72.1 µM
- TGI [57]: 19.3 µM
- TGI [58]: 18.1 µM

Structure (SMILES): CCCCc1ccc(Nc2nc3c(ncn3COCCBr)c(=O)[nH]2)cc1
- TGI [1]: > 100 µM
- TGI [2]: > 100 µM
- TGI [3]: > 100 µM
- TGI [4]: > 100 µM
- TGI [5]: > 100 µM
- TGI [6]: > 100 µM
- TGI [7]: > 100 µM
- TGI [8]: > 100 µM
- TGI [9]: > 100 µM
- TGI [10]: > 100 µM
- TGI [11]: > 100 µM
- TGI [12]: > 100 µM
- TGI [13]: > 100 µM
- TGI [14]: > 100 µM
- TGI [15]: > 100 µM
- TGI [16]: > 100 µM
- TGI [17]: > 100 µM
- TGI [18]: > 100 µM
- TGI [19]: > 100 µM
- TGI [20]: > 100 µM
- TGI [21]: > 100 µM
- TGI [22]: > 100 µM
- TGI [23]: > 100 µM
- TGI [24]: > 100 µM
- TGI [25]: > 100 µM
- TGI [59]: > 100 µM
- TGI [26]: > 100 µM
- TGI [27]: > 100 µM
- TGI [28]: > 100 µM
- TGI [29]: > 100 µM
- TGI [30]: > 100 µM
- TGI [31]: > 100 µM
- TGI [32]: > 100 µM
- TGI [33]: > 100 µM
- TGI [34]: > 100 µM
- TGI [35]: > 100 µM
- TGI [36]: > 100 µM
- TGI [37]: > 100 µM
- TGI [38]: > 100 µM
- TGI [39]: > 100 µM
- TGI [40]: > 100 µM
- TGI [41]: > 100 µM
- TGI [42]: > 100 µM
- TGI [43]: > 100 µM
- TGI [44]: > 100 µM
- TGI [46]: > 100 µM
- TGI [47]: > 100 µM
- TGI [48]: > 100 µM
- TGI [49]: > 100 µM
- TGI [50]: > 100 µM
- TGI [51]: > 100 µM
- TGI [52]: > 100 µM
- TGI [53]: > 100 µM
- TGI [54]: > 100 µM
- TGI [55]: > 100 µM
- TGI [56]: > 100 µM
- TGI [57]: > 100 µM
- TGI [58]: > 100 µM

Structure (SMILES): O=c1oc2c([N+](=O)[O-])cc([N+](=O)[O-])cc2c2ccccc12
- TGI [1]: > 100 µM
- TGI [2]: > 100 µM
- TGI [3]: > 100 µM
- TGI [4]: > 100 µM
- TGI [5]: > 100 µM
- TGI [6]: > 100 µM
- TGI [7]: > 100 µM
- TGI [8]: > 100 µM
- TGI [10]: > 100 µM
- TGI [11]: > 100 µM
- TGI [12]: > 100 µM
- TGI [13]: > 100 µM
- TGI [14]: > 100 µM
- TGI [15]: > 100 µM
- TGI [16]: > 100 µM
- TGI [17]: > 100 µM
- TGI [18]: > 100 µM
- TGI [19]: > 100 µM
- TGI [20]: > 100 µM
- TGI [21]: > 100 µM
- TGI [22]: > 100 µM
- TGI [23]: > 100 µM
- TGI [24]: > 100 µM
- TGI [25]: > 100 µM
- TGI [59]: > 100 µM
- TGI [26]: > 100 µM
- TGI [27]: > 100 µM
- TGI [28]: > 100 µM
- TGI [30]: > 100 µM
- TGI [31]: > 100 µM
- TGI [32]: > 100 µM
- TGI [33]: > 100 µM
- TGI [34]: > 100 µM
- TGI [35]: > 100 µM
- TGI [36]: > 100 µM
- TGI [37]: > 100 µM
- TGI [38]: > 100 µM
- TGI [39]: > 100 µM
- TGI [40]: > 100 µM
- TGI [41]: > 100 µM
- TGI [42]: > 100 µM
- TGI [43]: > 100 µM
- TGI [44]: > 100 µM
- TGI [45]: > 100 µM
- TGI [46]: > 100 µM
- TGI [47]: > 100 µM
- TGI [48]: > 100 µM
- TGI [49]: > 100 µM
- TGI [51]: > 100 µM
- TGI [52]: > 100 µM
- TGI [53]: > 100 µM
- TGI [54]: > 100 µM
- TGI [55]: > 100 µM
- TGI [56]: > 100 µM
- TGI [57]: > 100 µM
- TGI [58]: > 100 µM
